Experimental data: PubChem BioAssay (NCI)
“And” between values parts separate entries of the source, which are not always exact repeats. Equal values may be shown once.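 Step 1: Grow cells in 96-well plates. Step 2: Expose to compound for 48 hours at 5 concentrations. Step 3: Interpolate endpoints linearly; if unreached, use highest concentration. The concentration for 50% growth inhibition is given as GI50. TGI marks complete inhibition of growth.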

What was measured:
Assay in all cases: DTP human tumour cell line panel, 48 h
NCI/ADR-RES ovarian = test system: NCI/ADR-RES ovarian
786-0 renal = test system: 786-0 renal
OVCAR-3 ovarian = test system: OVCAR-3 ovarian
SNB-19 CNS = test system: SNB-19 CNS
KM12 colon = test system: KM12 colon
SK-MEL-5 melanoma = test system: SK-MEL-5 melanoma
RPMI-8226 leukemia = test system: RPMI-8226 leukemia
OVCAR-4 ovarian = test system: OVCAR-4 ovarian
HT29 colon = test system: HT29 colon
CAKI-1 renal = test system: CAKI-1 renal
SF-295 CNS = test system: SF-295 CNS
NCI-H23 lung = test system: NCI-H23 lung
SR leukemia = test system: SR leukemia
SK-MEL-2 melanoma = test system: SK-MEL-2 melanoma
HOP-92 NSCLC = test system: HOP-92 NSCLC

Row | SMILES | TGI (NCI/ADR-RES ovarian) [µM] | TGI (786-0 renal) [µM] | TGI (OVCAR-3 ovarian) [µM] | TGI (SNB-19 CNS) | TGI (KM12 colon) [µM] | TGI (SK-MEL-5 melanoma) [µM] | TGI (RPMI-8226 leukemia) [µM] | TGI (OVCAR-4 ovarian) [µM] | TGI (HT29 colon) [µM] | TGI (CAKI-1 renal) | TGI (SF-295 CNS) | TGI (NCI-H23 lung) [µM] | TGI (SR leukemia) [µM] | TGI (SK-MEL-2 melanoma) [µM] | TGI (HOP-92 NSCLC) | GI50 (SNB-19 CNS) | GI50 (OVCAR-4 ovarian) | GI50 (NCI-H23 lung) | GI50 (SR leukemia) | GI50 (SK-MEL-2 melanoma)
1 | CNc1ncnc2c1cnn2Cc1cn(CCCCO)nn1 | > 100 | > 100 | > 100 | > 100 µM | > 100 | > 100 | > 100 | > 100 | > 100 | > 100 µM | > 100 µM | > 100 | > 100 | > 100 | > 100 µM |  |  |  |  | 
2 | CC1=C(C)C(=O)C(C2=C(C3=CC(=O)C(C)=C(C)C3=O)C(=O)c3ccccc3C2=O)=CC1=O | 36.7 | 5.74 | 15.8 | 25.8 µM | 11.1 | 12.6 | 18 | 4 | 5.47 | 5.66 µM | 27.9 µM | 10.2 | 14.1 | 5.71 | 6.72 µM |  |  |  |  | 
3 | COc1ccc(N2C(=O)C3c4[nH]c5ccc(OCc6ccccc6)cc5c4C4CCC(C(C)C)CC4C3C2=O)cc1 (stereo not given) | > 100 | > 47.6 | > 100 | 34.9 µM | > 100 | > 100 | > 100 | > 100 | > 100 | > 59.6 µM | 29.3 µM | > 45.3 | 22.9 | 40.3 | 93.2 µM |  |  |  |  | 
4 | CC(C)(C)N=c1n(C(C)(C)C)oc(=O)n1-c1ccccc1 | > 50 | > 50 | > 50 | > 50 µM | > 50 | > 50 | > 50 | > 50 | > 50 | > 50 µM | > 50 µM | > 50 | > 50 | > 50 | > 50 µM |  |  |  |  | 
5 | Cc1cc(-c2ccc(C(=O)C(c3ccccc3)(c3ccccc3)c3ccccc3)[nH]2)on1 | 36.8 | 40.7 | > 100 | 58.4 µM | 47.5 | 29.4 | 48.1 | 88.1 | 25.6 | 69.5 µM | 97.7 µM | 32.4 | 29.7 | 36 | 51.8 µM |  |  |  |  | 
6 | O=C1C(NS(=O)(=O)c2ccccc2)=C(N(Cc2ccccc2)Cc2ccccc2)C(=O)c2ccccc21 | > 100 | > 100 | > 100 | > 100 µM | > 100 | > 100 | 72.7 | 59 | > 100 | > 100 µM | > 100 µM | 73.2 | > 100 | 45.8 | > 100 µM |  |  |  |  | 
7 | S=C(Nc1cccc(C2(N3CCCCC3)CCCCC2)c1)Nc1cccc(C2(N3CCCCC3)CCCCC2)c1 | > 100 | 30.5 | 50.5 | > 100 µM | 33.2 | 33.6 | 30.7 | > 100 | 66.1 | > 100 µM | > 100 µM | > 100 | 31.6 | 33.3 | 43.9 µM |  |  |  |  | 
8 | OC1(c2ccc3ccccc3c2)c2c(c3ccccc3c3ccccc23)C2=NCCN21 (stereo not given) | 5.22 | 25.3 | 36.9 | > 58.2 µM | 6.12 | > 100 | 6.87 | 13.9 | 8.63 | > 100 µM | 12.2 µM | 47.2 | > 28.4 | > 46.3 | 70.3 µM |  |  |  |  | 
9 | CC(=O)Nc1nnc(S(=O)(=O)NC(=S)Nc2ccc(Cl)cc2)s1 | > 100 | > 100 | > 100 | > 100 µM | > 100 | > 100 | > 100 | > 100 | > 100 | > 100 µM | > 100 µM | > 100 | > 100 | > 100 | > 100 µM |  |  |  |  | 
10 | CC(=O)Oc1cc(S(=O)(=O)Nc2n[nH]c(N)n2)c(S)cc1Cl | > 100 | > 100 | > 100 | > 100 µM | > 100 | > 100 | > 100 | > 100 | > 100 | > 100 µM | > 100 µM | > 100 | > 100 | > 100 | > 100 µM |  |  |  |  | 
11 | O=C(O)CO/N=C1/C(c2c(O)[nH]c3ccccc23)=Nc2ccccc21 | > 100 | > 100 | 69.9 | > 100 µM | > 100 | 80 | > 100 | > 100 | > 100 | > 100 µM | > 100 µM | > 100 | > 100 | 80.1 | > 100 µM |  |  |  |  | 
12 | Cc1cc(C(O)CNC(C)CCn2cnc3c2c(=O)n(C)c(=O)n3C)ccc1O (stereo not given) | > 100 | > 100 | > 100 | > 100 µM | > 100 | > 100 | > 100 | > 100 | > 100 | > 100 µM | > 100 µM | > 100 | > 100 | > 100 | > 100 µM |  |  |  |  | 
13 | COC(=O)[C@@H]1[C@H](O)CC[C@H]2[C@@]1(C)CC[C@@H](C)[C@]2(COC(C)=O)CC(=O)c1ccoc1 | > 50 | > 50 | > 50 | > 50 µM | > 50 | > 50 | > 50 | > 50 | > 50 | > 50 µM | > 50 µM | > 50 | > 50 | > 50 | > 50 µM |  |  |  |  | 
14 | CC(Nc1n[nH]c(=O)c2c1nnn2Cc1ccccc1)c1ccccc1 (stereo not given) | > 100 | 30.1 | > 100 | > 100 µM and 66.2 µM | > 100 | > 100 | > 100 | > 100 | 24.7 | > 100 µM and 52.9 µM | > 100 µM and 61.1 µM | > 100 | > 100 | > 100 | > 100 µM and 63.3 µM | > 100 µM and 21.7 µM | > 100 µM and 26.8 µM | > 100 µM and 43.8 µM | > 100 µM and 48 µM | > 100 µM and 41.5 µM
15 | CCOC(=O)c1ccc(Nc2cnc3ccc(C(F)(F)F)cc3n2)cc1 | 30.8 | 26.8 | 44.8 | 84.7 µM | 25.8 | 31.2 | 71.1 | 32 | 24.1 | 30.7 µM | 50.6 µM | 28.5 | 52.6 | 33.8 | 23.5 µM |  |  |  |  | 
16 | O=C(Nc1ccc(S(=O)(=O)Nc2ncccn2)cc1)c1c2ccccc2nc2ccccc12 | > 100 | > 100 | > 100 | > 100 µM | > 100 | > 100 | > 100 | > 100 | > 100 | > 100 µM | > 100 µM | > 100 | > 100 | > 100 | > 100 µM |  |  |  |  | 
